Laboratory results taken from US9969742B2, “Imidazotriazinone compounds” (Ironwood Pharmaceuticals, Inc., priority 2012, dated 2018).
Where two headings read alike, the source gives them in different places.

Columns and labels:
Assay type in all cases: biochemical
PDE1B = molecular target: T1, PDE1B (Homo sapiens, UniProt Q01064); assay: Phosphodiesterase enzyme screening assay, PDE1B
T1 construct: purchased Reaction Biology Corporation, Malvern, Pa
Source text: (§1) Compounds of the invention were screened against PDE1A, PDE1B, PDE2A, PDE3A, PDE3B, PDE4A1A, PDE4B1, PDE4D3, PDE5A1, PDE6C, PDE7A, PDE8A1, PDE9A2, PDE10A2 AND PDE11A isoforms of the phosphodiesterase enzyme to determine activity and overall selectivity through comparative analysis. […] Where 8-methoxy-IBMX and Zaprinast were used as reference inhibitors.
(§2) The phosphodiesterase enzyme isoforms were obtained from a commercial retailer (Reaction Biology Corporation, Malvern, Pa.) for use in the instant screening assay.
(§3) The analysis was completed using the Caliper LabChip 3000 and a 12-sipper LabChip. LabChip assays are separations-based, meaning that the product and substrate are electrophoretically separated, thereby minimizing interferences and yielding the highest data quality available on any screening platform. […] High Z′ values, few false positives, few false negatives and analytical quality reproducibility are the reasons cited for the increasing reliance on the LabChip assays.
(§4) The off-chip incubation mobility-shift phosphodiesterase assay uses a microfluidic chip to measure the conversion of a fluorescent cyclic AMP substrate to a 5′-AMP product, or a cyclic GMP substrate to a 5′-GMP product. The reaction mixture, from a microtiter plate well, is introduced through a capillary sipper onto the chip, where the fluorescent substrate and product are separated by electrophoresis and detected via laser-induced fluorescence. […] The precision of microfluidics allows researchers to detect subtle interactions between drug candidates and therapeutic targets.
(§5) Reactions were carried out in 100 mM HEPES (pH 7.5), 5 mM MgCl2, 1 mM DTT, 0.003% Brij, 4.0 μM cGMP substrate. The reaction was started by addition of cGMP or cAMP and incubated for 1 hour at R.T. The reaction was terminated by the addition of stop buffer containing 100 mM HEPES (pH 7.5), 15 mM EDTA, 0.015% Brij-35, 5% DMSO. Cyclic AMP/GMP substrate and 5′-AMP/5′-GMP product were separated by charge using electrophoretic mobility shift. Product formed was compared to control wells to determine inhibition or enhancement of enzyme activity.
(§6) Data points were averages of quadruplicate wells and error bars represented the SEM for each point.

PDE9A2 = molecular target: T2, PDE9A2 (Homo sapiens, UniProt O76083); assay: Phosphodiesterase enzyme screening assay, PDE9A2; details: 4.0 μM cGMP substrate, 1 hour at R.T., read-out: Band (PDE9A2 IC50)
T2 construct: purchased Reaction Biology Corporation, Malvern, Pa
How it was run: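 Read-out was electrophoretic mobility-shift separation on chip of fluorescent cyclic nucleotide from 5′-AMP/5′-GMP, with inhibition or enhancement judged against control wells (quadruplicate means). Reactions lasted 1 h at RT in HEPES pH 7.5 buffer with MgCl2, DTT and Brij plus 4.0 μM cGMP substrate, then were halted with EDTA stop buffer.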

PDE1A = molecular target: T3, PDE1A (Homo sapiens, UniProt P54750); assay: Phosphodiesterase enzyme screening assay, PDE1A
T3 construct: purchased Reaction Biology Corporation, Malvern, Pa
Source text: as §1, §2, §3, §4, §5, §6

[1] = Table 1, ratio of IC50 values, value greater than 1 indicates greater selectivity for PDE9A2
[2] = ratio of IC50 values PDE1B / PDE9A2, value greater than 1 = greater selectivity for PDE9A2
[3] = ratio of IC50 values PDE1A / PDE9A2, value greater than 1 = greater selectivity for PDE9A2

T1 sequence (Q01064 whole entry): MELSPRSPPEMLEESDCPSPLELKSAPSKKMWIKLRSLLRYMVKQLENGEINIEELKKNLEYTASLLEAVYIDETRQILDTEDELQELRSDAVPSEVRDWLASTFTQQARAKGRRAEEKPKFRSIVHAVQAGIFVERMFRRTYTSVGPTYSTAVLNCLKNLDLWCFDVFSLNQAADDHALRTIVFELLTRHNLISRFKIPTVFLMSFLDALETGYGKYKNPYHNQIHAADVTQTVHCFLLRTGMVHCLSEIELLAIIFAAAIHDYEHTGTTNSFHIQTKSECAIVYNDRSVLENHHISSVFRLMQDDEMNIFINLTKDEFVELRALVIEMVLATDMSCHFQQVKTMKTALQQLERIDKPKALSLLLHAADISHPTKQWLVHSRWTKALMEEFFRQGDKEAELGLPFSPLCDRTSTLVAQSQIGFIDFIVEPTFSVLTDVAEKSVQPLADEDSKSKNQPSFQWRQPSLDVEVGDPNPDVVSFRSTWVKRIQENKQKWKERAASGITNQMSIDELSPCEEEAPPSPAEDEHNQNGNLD
T2 sequence (O76083 1-533 isoform O76083-2): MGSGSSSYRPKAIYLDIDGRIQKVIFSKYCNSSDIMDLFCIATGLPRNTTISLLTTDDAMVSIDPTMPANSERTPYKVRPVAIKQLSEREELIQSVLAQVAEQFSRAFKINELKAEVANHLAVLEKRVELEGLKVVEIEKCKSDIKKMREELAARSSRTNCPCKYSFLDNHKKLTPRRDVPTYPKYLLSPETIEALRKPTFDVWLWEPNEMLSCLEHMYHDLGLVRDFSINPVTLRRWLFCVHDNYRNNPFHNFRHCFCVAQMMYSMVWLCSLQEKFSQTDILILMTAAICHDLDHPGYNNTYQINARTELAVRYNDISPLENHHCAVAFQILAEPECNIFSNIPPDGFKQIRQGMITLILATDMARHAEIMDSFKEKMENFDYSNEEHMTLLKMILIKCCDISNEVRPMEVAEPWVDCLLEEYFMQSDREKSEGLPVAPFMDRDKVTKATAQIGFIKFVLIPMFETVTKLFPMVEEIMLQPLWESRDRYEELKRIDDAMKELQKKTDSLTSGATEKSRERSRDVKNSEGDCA
T3 sequence (P54750 whole entry): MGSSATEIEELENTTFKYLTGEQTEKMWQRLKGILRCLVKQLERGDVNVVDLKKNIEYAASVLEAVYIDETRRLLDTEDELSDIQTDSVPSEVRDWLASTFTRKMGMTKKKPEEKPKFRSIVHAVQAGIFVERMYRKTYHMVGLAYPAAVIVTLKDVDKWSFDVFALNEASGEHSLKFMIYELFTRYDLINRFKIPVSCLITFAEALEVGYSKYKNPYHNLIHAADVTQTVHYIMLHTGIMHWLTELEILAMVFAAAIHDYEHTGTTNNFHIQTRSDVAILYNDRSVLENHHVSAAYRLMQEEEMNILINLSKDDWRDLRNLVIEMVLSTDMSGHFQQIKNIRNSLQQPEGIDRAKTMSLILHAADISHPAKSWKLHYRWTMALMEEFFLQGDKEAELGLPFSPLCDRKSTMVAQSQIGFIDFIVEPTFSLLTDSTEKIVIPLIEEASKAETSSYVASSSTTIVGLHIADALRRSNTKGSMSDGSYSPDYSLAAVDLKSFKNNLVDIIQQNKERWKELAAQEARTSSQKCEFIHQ

Structure (SMILES) | PDE1B selectivity (versus PDE9A2) (PDE1B; [1]) | IC50 (PDE9A2; Table 1, 10 concentrations) [µM] | PDE1A selectivity (versus PDE9A2) (PDE1A; [1]) | PDE1B selectivity (versus PDE9A2) (PDE1B; [2]) | IC50 (PDE9A2) [µM] | PDE1A selectivity (versus PDE9A2) (PDE1A; [3])
CC1CN(Cc2cc(Cl)ccc2Cl)CC1c1nn2c(C3CCOCC3)ncc2c(=O)[nH]1 (single isomer, unassigned; (+)) [(+)-2-((3,4-trans)-1-(2,5-dichlorobenzyl)-4-methylpyrrolidin-3-yl)-7-(tetrahydro-2H-pyran-4-yl)imidazo[5,1-f][1,2,4]triazin-4(3H)-one] | 90 | < 1 | 274 |  |  | 
CC1CN(Cc2cc(F)ccc2F)CC1c1nn2c(C3CCOCC3)ncc2c(=O)[nH]1 (single isomer, unassigned; (+)) [(+)-2-((3,4-trans)-1-(2,5-difluorobenzyl)-4-methylpyrrolidin-3-yl)-7-(tetrahydro-2H-pyran-4-yl)imidazo[5,1-f][1,2,4]triazin-4(3H)-one] | 118 | < 1 | 97 |  |  | 
CC1CN(Cc2ccccc2N(C)C)CC1c1nn2c(C3CCOCC3)ncc2c(=O)[nH]1 (single isomer, unassigned; (+)) [(+)-2-((3,4-trans)-1-(2-(dimethylamino)benzyl)-4-methylpyrrolidin-3-yl)-7-(tetrahydro-2H-pyran-4-yl)imidazo[5,1-f][1,2,4]triazin-4(3H)-one] | 279 | < 1 | 363 |  |  | 
CC1CN(Cc2ccccc2Br)CC1c1nn2c(C3CCOCC3)ncc2c(=O)[nH]1 (single isomer, unassigned; (+)) [(+)-2-((3,4-trans)-1-(2-bromobenzyl)-4-methylpyrrolidin-3-yl)-7-(tetrahydro-2H-pyran-4-yl)imidazo[5,1-f][1,2,4]triazin-4(3H)-one] | 28 | < 1 | 104 |  |  | 
CC1CN(Cc2c(F)ccc(F)c2Cl)CC1c1nn2c(C3CCOCC3)ncc2c(=O)[nH]1 (single isomer, unassigned; (+)) [(+)-2-((3,4-trans)-1-(2-chloro-3,6-difluorobenzyl)-4-methylpyrrolidin-3-yl)-7-(tetrahydro-2H-pyran-4-yl)imidazo[5,1-f][1,2,4]triazin-4(3H)-one] |  |  |  | 231 | < 1 | 118
CC1CN(Cc2cc(F)ccc2Cl)CC1c1nn2c(C3CCOCC3)ncc2c(=O)[nH]1 (single isomer, unassigned; (+)) [(+)-2-((3,4-trans)-1-(2-chloro-5-fluorobenzyl)-4-methylpyrrolidin-3-yl)-7-(tetrahydro-2H-pyran-4-yl)imidazo[5,1-f][1,2,4]triazin-4(3H)-one] |  |  |  | 73 | < 1 | 177
CC1CN(Cc2c(F)cccc2Cl)CC1c1nn2c(C3CCOCC3)ncc2c(=O)[nH]1 (single isomer, unassigned; (+)) [(+)-2-((3,4-trans)-1-(2-chloro-6-fluorobenzyl)-4-methylpyrrolidin-3-yl)-7-(tetrahydro-2H-pyran-4-yl)imidazo[5,1-f][1,2,4]triazin-4(3H)-one] |  |  |  | 252 | < 1 | 196
CC1CN(Cc2ccccc2Cl)CC1c1nn2c(C3CCOCC3)ncc2c(=O)[nH]1 (single isomer, unassigned; (+)) [(+)-2-((3,4-trans)-1-(2-chlorobenzyl)-4-methylpyrrolidin-3-yl)-7-(tetrahydro-2H-pyran-4-yl)imidazo[5,1-f][1,2,4]triazin-4(3H)-one] | 48 | < 1 | 92 |  |  | 

The remaining lines, values ahead:

PDE1B selectivity (versus PDE9A2) (PDE1B; [1]) | IC50 (PDE9A2; Table 1, 10 concentrations) [µM] | PDE1A selectivity (versus PDE9A2) (PDE1A; [1]) | PDE1B selectivity (versus PDE9A2) (PDE1B; [2]) | IC50 (PDE9A2) [µM] | PDE1A selectivity (versus PDE9A2) (PDE1A; [3]) | Structure (SMILES)
255 | < 1 | 340 |  |  |  | COc1ccc(F)c(CN2CC(C)C(c3nn4c(C5CCOCC5)ncc4c(=O)[nH]3)C2)c1 (single isomer, unassigned; (+)) [(+)-2-((3,4-trans)-1-(2-fluoro-5-methoxybenzyl)-4-methylpyrrolidin-3-yl)-7-(tetrahydro-2H-pyran-4-yl)imidazo[5,1-f][1,2,4]triazin-4(3H)-one]
442 | < 1 | 300 |  |  |  | CC1CN(Cc2ccccc2F)CC1c1nn2c(C3CCOCC3)ncc2c(=O)[nH]1 (single isomer, unassigned; (+)) [(+)-2-((3,4-trans)-1-(2-fluorobenzyl)-4-methylpyrrolidin-3-yl)-7-(tetrahydro-2H-pyran-4-yl)imidazo[5,1-f][1,2,4]triazin-4(3H)-one]
230 | < 1 | 337 |  |  |  | COc1ccccc1CN1CC(C)C(c2nn3c(C4CCOCC4)ncc3c(=O)[nH]2)C1 (single isomer, unassigned; (+)) [(+)-2-((3,4-trans)-1-(2-methoxybenzyl)-4-methylpyrrolidin-3-yl)-7-(tetrahydro-2H-pyran-4-yl)imidazo[5,1-f][1,2,4]triazin-4(3H)-one]
2627 | < 1 | 1297 |  |  |  | CC1CN(Cc2ccc(Cl)c(Cl)c2)CC1c1nn2c(C3CCOCC3)ncc2c(=O)[nH]1 (single isomer, unassigned; (+)) [(+)-2-((3,4-trans)-1-(3,4-dichlorobenzyl)-4-methylpyrrolidin-3-yl)-7-(tetrahydro-2H-pyran-4-yl)imidazo[1,5-f][1,2,4]triazin-4(3H)-one]
92 | < 1 | 93 |  |  |  | CC1CN(Cc2cc(Cl)cc(Cl)c2)CC1c1nn2c(C3CCOCC3)ncc2c(=O)[nH]1 (single isomer, unassigned; (+)) [(+)-2-((3,4-trans)-1-(3,5-dichlorobenzyl)-4-methylpyrrolidin-3-yl)-7-(tetrahydro-2H-pyran-4-yl)imidazo[5,1-f][1,2,4]triazin-4(3H)-one]
1043 | < 1 | 1710 |  |  |  | CC1CN(Cc2cc(F)cc(F)c2)CC1c1nn2c(C3CCOCC3)ncc2c(=O)[nH]1 (single isomer, unassigned; (+)) [(+)-2-((3,4-trans)-1-(3,5-difluorobenzyl)-4-methylpyrrolidin-3-yl)-7-(tetrahydro-2H-pyran-4-yl)imidazo[1,5-f][1,2,4]triazin-4(3H)-one]
1490 | < 1 | 612 |  |  |  | CC1CN(Cc2cccc(-n3cccn3)c2)CC1c1nn2c(C3CCOCC3)ncc2c(=O)[nH]1 (single isomer, unassigned; (+)) [(+)-2-((3,4-trans)-1-(3-(1H-pyrazol-1-yl)benzyl)-4-methylpyrrolidin-3-yl)-7-(tetrahydro-2H-pyran-4-yl)imidazo[5,1-f][1,2,4]triazin-4(3H)-one]
923 | < 1 | 680 |  |  |  | CC1CN(Cc2cccc(N(C)C)c2)CC1c1nn2c(C3CCOCC3)ncc2c(=O)[nH]1 (single isomer, unassigned; (+)) [(+)-2-((3,4-trans)-1-(3-(dimethylamino)benzyl)-4-methylpyrrolidin-3-yl)-7-(tetrahydro-2H-pyran-4-yl)imidazo[5,1-f][1,2,4]triazin-4(3H)-one]
92 | < 1 | 243 |  |  |  | CC1CN(Cc2cccc(Br)c2)CC1c1nn2c(C3CCOCC3)ncc2c(=O)[nH]1 (single isomer, unassigned; (+)) [(+)-2-((3,4-trans)-1-(3-bromobenzyl)-4-methylpyrrolidin-3-yl)-7-(tetrahydro-2H-pyran-4-yl)imidazo[5,1-f][1,2,4]triazin-4(3H)-one]
 |  |  | 430 | < 1 | 604 | CC1CN(Cc2ccc(F)c(Cl)c2)CC1c1nn2c(C3CCOCC3)ncc2c(=O)[nH]1 (single isomer, unassigned; (+)) [(+)-2-((3,4-trans)-1-(3-chloro-4-fluorobenzyl)-4-methylpyrrolidin-3-yl)-7-(tetrahydro-2H-pyran-4-yl)imidazo[5,1-f][1,2,4]triazin-4(3H)-one]
